Assay results reported in patent US6441195B1, “Substituted sulphonylamino(thio) carbonyl compounds” (Bayer Aktiengesellschaft, priority 1995, dated 2002).

Legend:
Format in all cases: in vivo
[1] = test system: Matricaria; assay: Pre-emergence test/Greenhouse, Matricaria; conditions: after three weeks
Method: (§1) To produce a suitable preparation of the active compound, 1 part by weight of active compound is mixed with the stated amount of solvent, the stated amount of emulsifier is added and the concentrate is diluted with water to the desired concentration.
(§2) Seeds of the test plants are sown in normal soil. After about 24 hours, the soil is watered with the preparation of active compound. Advantageously, the amount of water per unit area is kept constant. The active compound concentration in the preparation is not important, only the active compound appliation rate per unit area matters.
(§3) After three weeks, the degree of damage to the plants is rated in % damage in comparison to the development of the untreated control.
(§4) 0%=no action (like untreated control)

[2] = test system: Ambrosia; assay: Pre-emergence test/Greenhouse, Ambrosia; conditions: after three weeks
Method: as §1, §2, §3, §4

[3] = test system: Sorghum; assay: Pre-emergence test/Greenhouse, Sorghum; conditions: after three weeks
Method: as §1, §2, §3, §4

[4] = test system: Solanum; assay: Pre-emergence test/Greenhouse, Solanum; conditions: after three weeks
Method: as §1, §2, §3, §4

[5] = test system: weeds; assay: Pre-emergence test (greenhouse), activity against weeds; conditions: in words
Method: Solvent: 5 parts by weight of acetone
Emulsifier: 1 part by weight of alkylaryl polyglycol ether
as §1, §2, §3, §4

[6] = test system: Maize; assay: Pre-emergence test/Greenhouse, Maize; conditions: in vivo
Method: as §1, §2, §3, §4

[7] = test system: Poa; assay: Pre-emergence test/Greenhouse, Poa; conditions: after three weeks
Method: as §1, §2, §3, §4

[8] = test system: Lolium; assay: Pre-emergence test/Greenhouse, Lolium; conditions: after three weeks
Method: as §1, §2, §3, §4

SMILES	degree of damage to the plants (% damage vs untreated control), Matricaria ([1]; 125 g of ai./ha) [%]	degree of damage to the plants (% damage vs untreated control), Sorghum ([3]; 125 g of ai./ha) [%]	degree of damage to the plants (% damage vs untreated control), Solanum ([4]; 125 g of ai./ha) [%]	activity against weeds [5]	degree of damage to the plants (% damage vs untreated control), Maize [6] [%]	degree of damage to the plants (% damage vs untreated control), Poa ([7]; 125 g of ai./ha) [%]	degree of damage to the plants (% damage vs untreated control), Lolium ([8]; 125 g of ai./ha) [%]	degree of damage to the plants (% damage vs untreated control), Matricaria ([1]; 60 g of ai./ha) [%]	degree of damage to the plants (% damage vs untreated control), Solanum ([4]; 60 g of ai./ha) [%]	degree of damage to the plants (% damage vs untreated control), Lolium ([8]; 60 g of ai./ha) [%]	further results
CCCOc1nn(C(=O)NS(=O)(=O)c2c(C)csc2C(=O)OC)c(=O)n1C [Example 33]	95	80	95	very strong activity against weeds	10	90					degree of damage to the plants (% damage vs untreated control), Ambrosia ([2]; 125 g of ai./ha): 90%
CCCOC(=O)c1scc(C)c1S(=O)(=O)NC(=O)n1nc(OC)n(C)c1=O [Example 89]	100	90	100	very strong activity against weeds	0		100				
CCOC(=O)c1scc(C)c1S(=O)(=O)NC(=O)n1nc(OCC(F)(F)F)n(C)c1=O [Example 62]	95	60	95	very strong activity against weeds	0	90	80				
CCOC(=O)c1scc(C)c1S(=O)(=O)NC(=O)n1nc(OC(C)C)n(C)c1=O [Example 59]	100		95	very strong activity against weeds	0	70	100				degree of damage to the plants (% damage vs untreated control), Ambrosia ([2]; 125 g of ai./ha): 95%
CCCOc1nn(C(=O)NS(=O)(=O)c2c(C)csc2C(=O)OCC)c(=O)n1C [Example 58]	100		95	very strong activity against weeds	20	95	80				
CCCc1nn(C(=O)NS(=O)(=O)c2c(C)csc2C(=O)OC(C)C)c(=O)n1C [Example 108]	95	95	90	very strong activity against weeds	5		90				
COC(=O)c1cccc(C)c1S(=O)(=O)NC(=O)n1nc(SC)n(C2CC2)c1=O [Example 158]				very strong activity against weeds							
COC(=O)c1scc(C)c1S(=O)(=O)NC(=O)n1nc(OC(C)C)n(C2CC2)c1=O [Example 53]	95		95	very strong activity against weeds	0	95	95				degree of damage to the plants (% damage vs untreated control), Ambrosia ([2]; 125 g of ai./ha): 95%
CCOC(=O)c1scc(C)c1S(=O)(=O)NC(=O)n1nc(OC)n(C)c1=O [Example 57]				very strong activity against weeds	0			95	95	95	degree of damage to the plants (% damage vs untreated control), Sorghum ([3]; 60 g of ai./ha): 95%; degree of damage to the plants (% damage vs untreated control), Poa ([7]; 60 g of ai./ha): 95%
CCOC(=O)c1scc(C)c1S(=O)(=O)NC(=O)n1nc(CC)n(C)c1=O [Example 66]	100	100	100	very strong activity against weeds	0		100				
CCOC(=O)c1scc(C)c1S(=O)(=O)NC(=O)c1noc(C)n1 [Example 72]	100		100	very strong activity against weeds	10	70	90				degree of damage to the plants (% damage vs untreated control), Ambrosia ([2]; 125 g of ai./ha): 95%
CCOC(=O)c1scc(C)c1S(=O)(=O)NC(=O)n1nc(OC(C)C)n(C2CC2)c1=O [Example 70]				very strong activity against weeds	10			100	100	90	degree of damage to the plants (% damage vs untreated control), Ambrosia ([2]; 60 g of ai./ha): 90%; degree of damage to the plants (% damage vs untreated control), Poa ([7]; 60 g of ai./ha): 90%
CCCOC(=O)c1scc(C)c1S(=O)(=O)NC(=O)n1nc(OCC)n(C2CC2)c1=O [Example 93]				very strong activity against weeds	0			95	90	90	degree of damage to the plants (% damage vs untreated control), Sorghum ([3]; 60 g of ai./ha): 80%
CCc1nn(C(=O)NS(=O)(=O)c2c(C)csc2C(=O)OC(C)C)c(=O)n1C [Example 77]				very strong activity against weeds	0			100	90	95	degree of damage to the plants (% damage vs untreated control), Sorghum ([3]; 60 g of ai./ha): 90%
CCSc1nn(C(=O)NS(=O)(=O)c2c(C)csc2C(=O)OC(C)C)c(=O)n1C [Example 81]				very strong activity against weeds				100	100	100	degree of damage to the plants (% damage vs untreated control), Sorghum ([3]; 60 g of ai./ha): 95%
COC(=O)c1cccc(C)c1S(=O)(=O)NC(=O)c1ncc(C)o1 [Example 121]				very strong activity against weeds	10						degree of damage to the plants (% damage vs untreated control), Matricaria ([1]; 500 g of ai./ha): 90%; degree of damage to the plants (% damage vs untreated control), Sorghum ([3]; 500 g of ai./ha): 80%; degree of damage to the plants (% damage vs untreated control), Solanum ([4]; 500 g of ai./ha): 95%; degree of damage to the plants (% damage vs untreated control), Lolium ([8]; 500 g of ai./ha): 70%
COc1nn(C(=O)NS(=O)(=O)c2c(C)csc2C(=O)OC(C)C)c(=O)n1C [Example 82]				very strong activity against weeds	0			100	100	60	degree of damage to the plants (% damage vs untreated control), Sorghum ([3]; 60 g of ai./ha): 90%
CCCOC(=O)c1scc(C)c1S(=O)(=O)NC(=O)n1nc(OCC)n(C)c1=O [Example 80]	100	90	95	very strong activity against weeds	0		95				
CCOC(=O)c1scc(C)c1S(=O)(=O)NC(=O)n1nc(C)n(C)c1=O [Example 65]	95	80	95	very strong activity against weeds	20	80	80				
CCOc1nn(C(=O)NS(=O)(=O)c2c(C)csc2C(=O)OC(C)C)c(=O)n1C1CC1 [Example 85]	100	95	100	very strong activity against weeds	60		95				
CCCc1nn(C(=O)NS(=O)(=O)c2c(C)csc2C(=O)OCC)c(=O)n1C [Example 67]				very strong activity against weeds	0			100	100	100	degree of damage to the plants (% damage vs untreated control), Sorghum ([3]; 60 g of ai./ha): 90%
